From patent publication US8080529B2, “Macrolides with anti-inflammatory activity” (Glaxo Group Limited, priority 2005, dated 2011)
Where two headings read alike, the source gives them in different places.

Experiments:
Format in all cases: cell-based
[1] = test system: IL-6; experiment: Inhibition of IL-6 production by stimulated human peripheral blood leukocytes in vitro; settings: for inhibition at 10 µM / inhibition at 50 µM: Homo sapiens, Leukocyte, read-out: Percentage of inhibition of IL-6 production
Procedure: (§1) Test substances used in in vitro experiments were dissolved in dimethyl sulfoxide (DMSO) (Kemika, Croatia) at concentrations of 50 mM and 10 mM, and were further diluted to final concentrations of 50 μM and 10 μM in 1 mL Dulbecco's modified Eagle medium (DMEM) supplemented with 1% heat inactivated fetal bovine serum (FBS), 1% L-glutamine, 50 U/ml penicillin, 50 μg/ml streptomycin and 2.5 μg/mL Fungizone (amphotericin B). Media and all media supplements were purchased from Gibco, Australia, except the FBS was purchased from Sigma, USA.
(§2) Peripheral blood leukocytes (PBL) were obtained from venous blood of healthy volunteers by sedimentation on 2% dextran T-500 (Amersham Biosciences, USA) and subsequent centrifugations of leukocyte rich plasma.
(§3) Peripheral blood leukocytes (PBL), isolated as described above, were seeded in a 48-well plate at a concentration of 3 to 5×10^6 cell per well in culture medium consisting of RPMI 1640 medium (Institute of Immunology, Croatia) supplemented with 10% heat-inactivated fetal calf serum (FCS, Biowhittaker, USA), 100 U/ml penicillin (Gibco, Australia), 100 μg/ml streptomycin (Gibco, Australia) and 2 mM L-glutamine (Gibco, Australia), and preincubated with the test compounds for 2 h at 37° C., in an atmosphere of 5% CO2, and 90% humidity. Then, stimuli (Sigma, USA) were added to a final concentration of 2 μg/mL lipopolysaccharide (LPS), 1 μg/mL phorbol 12-myristate 13-acetate (PMA) or 120 μg/mL zymosan. Samples were incubated overnight under conditions described above. At the end of incubation, the supernatants were transferred to eppendorf tubes and centrifuged for 10 min at 1500×g. Concentrations of human TNF-α, IL-1β, IL-6 and IL-8 were determined in cell supernatants by sandwich ELISA, using capture and detection antibodies (R&D Systems, Minneapolis, Minn.) according to the manufacturer's recommendations.
(§4) Inhibition (as percentage) was calculated using the following formula: % inhibition=(1−concentration of cytokines in sample/concentration of cytokines in positive control)×100.
(§5) The positive control refers to LPS-, PMA- or zymosan-stimulated samples that were not preincubated with test compounds.

[2] = test system: TNF-α; experiment: Inhibition of TNF-α production by stimulated human peripheral blood leukocytes in vitro; settings: for inhibition at 10 µM / inhibition at 50 µM: Homo sapiens, Leukocyte, read-out: Percentage of inhibition of TNF-α production
Procedure: as §1, §2, §3, §4, §5

[3] = test system: IL-1α; experiment: Inhibition of IL-1 production by stimulated human peripheral blood leukocytes in vitro; settings: for inhibition at 10 µM / inhibition at 50 µM: Homo sapiens, Leukocyte, read-out: Percentage of inhibition of IL-1α production
[4] = test system: IL-8; experiment: Inhibition of IL-8 production by stimulated human peripheral blood leukocytes in vitro; settings: for inhibition at 10 µM / inhibition at 50 µM: Homo sapiens, Leukocyte, read-out: Percentage of inhibition of IL-8 production
Procedure: as §1, §2, §3, §4, §5

**Q.** Which results are given for `CC[C@H]1OC(=O)[C@H](C)[C@@H](O[C@H]2C[C@@](C)(OC)[C@@H](OCCCN(CC)CC)[C@H](C)O2)[C@H](C)[C@@H](O[C@@H]2O[C@H](C)C[C@H](N(C)C)[C@H]2O)[C@](C)(O)C[C@@H](C)CN(C)[C@H](C)[C@H]2OC(=O)O[C@@]21C` [Example 95, 4″-O-(3-diethylamino-propyl)-azithromycin 11,12-cyclic carbonate]?
**A.** Percentage of inhibition of IL-6 production ([1]; 10 μM, LPS-stimulated PBL): 1%; Percentage of inhibition of IL-6 production ([1]; 10 μM, PMA-stimulated PBL): 17%; Percentage of inhibition of IL-6 production ([1]; 10 μM, zymosan-stimulated PBL): 18%; Percentage of inhibition of IL-6 production ([1]; 50 μM, LPS-stimulated PBL): 8%; Percentage of inhibition of IL-6 production ([1]; 50 μM, PMA-stimulated PBL): 56%; Percentage of inhibition of IL-6 production ([1]; 50 μM, zymosan-stimulated PBL): 58%; Percentage of inhibition of TNF-α production ([2]; 10 μM, LPS-stimulated PBL): 12%; Percentage of inhibition of TNF-α production ([2]; 10 μM, PMA-stimulated PBL): 34%; Percentage of inhibition of TNF-α production ([2]; 10 μM, zymosan-stimulated PBL): 47%; Percentage of inhibition of TNF-α production ([2]; 50 μM, LPS-stimulated PBL): 30%; Percentage of inhibition of TNF-α production ([2]; 50 μM, PMA-stimulated PBL): 50%; Percentage of inhibition of TNF-α production ([2]; 50 μM, zymosan-stimulated PBL): 63%; Percentage of inhibition of IL-1α production ([3]; 10 μM, LPS-stimulated PBL): 0%; Percentage of inhibition of IL-1α production ([3]; 10 μM, PMA-stimulated PBL): 25%; Percentage of inhibition of IL-1α production ([3]; 10 μM, zymosan-stimulated PBL): 38%; Percentage of inhibition of IL-1α production ([3]; 50 μM, LPS-stimulated PBL): 0%; Percentage of inhibition of IL-1α production ([3]; 50 μM, PMA-stimulated PBL): 75%; Percentage of inhibition of IL-1α production ([3]; 50 μM, zymosan-stimulated PBL): 42%; Percentage of inhibition of IL-8 production ([4]; 10 μM, LPS-stimulated PBL): 0%; Percentage of inhibition of IL-8 production ([4]; 10 μM, PMA-stimulated PBL): 0%; Percentage of inhibition of IL-8 production ([4]; 10 μM, zymosan-stimulated PBL): 5%; Percentage of inhibition of IL-8 production ([4]; 50 μM, LPS-stimulated PBL): 16%; Percentage of inhibition of IL-8 production ([4]; 50 μM, PMA-stimulated PBL): 21%; Percentage of inhibition of IL-8 production ([4]; 50 μM, zymosan-stimulated PBL): 33%

**Q.** What does the source list for `CC[C@H]1OC(=O)[C@H](C)[C@@H](O[C@H]2C[C@@](C)(OC)[C@@H](OCCCN(CC)CC)[C@H](C)O2)[C@H](C)[C@@H](O[C@@H]2O[C@H](C)C[C@H](N(C)C)[C@H]2O)[C@](C)(O)C[C@@H](C)CN(C)[C@H](C)[C@@H](O)[C@]1(C)O` [Example 96, 4″-O-(3-diethylamino-propyl)-azithromycin]?
**A.** inhibition at 10 µM ([1]; 10 μM, LPS-stimulated PBL): 0%; inhibition at 10 µM ([1]; 10 μM, PMA-stimulated PBL): 27%; inhibition at 10 µM ([1]; 10 μM, zymosan-stimulated PBL): 17%; inhibition at 50 µM ([1]; 50 μM, LPS-stimulated PBL): 3%; inhibition at 50 µM ([1]; 50 μM, PMA-stimulated PBL): 64%; inhibition at 50 µM ([1]; 50 μM, zymosan-stimulated PBL): 76%; inhibition at 10 µM ([2]; 10 μM, LPS-stimulated PBL): 3%; inhibition at 10 µM ([2]; 10 μM, PMA-stimulated PBL): 14%; inhibition at 10 µM ([2]; 10 μM, zymosan-stimulated PBL): 21%; inhibition at 50 µM ([2]; 50 μM, LPS-stimulated PBL): 13%; inhibition at 50 µM ([2]; 50 μM, PMA-stimulated PBL): 48%; inhibition at 50 µM ([2]; 50 μM, zymosan-stimulated PBL): 61%; inhibition at 10 µM ([3]; 10 μM, LPS-stimulated PBL): 0%; inhibition at 10 µM ([3]; 10 μM, PMA-stimulated PBL): 32%; inhibition at 10 µM ([3]; 10 μM, zymosan-stimulated PBL): 36%; inhibition at 50 µM ([3]; 50 μM, LPS-stimulated PBL): 0%; inhibition at 50 µM ([3]; 50 μM, PMA-stimulated PBL): 81%; inhibition at 50 µM ([3]; 50 μM, zymosan-stimulated PBL): 88%; inhibition at 10 µM ([4]; 10 μM, LPS-stimulated PBL): 0%; inhibition at 10 µM ([4]; 10 μM, PMA-stimulated PBL): 0%; inhibition at 10 µM ([4]; 10 μM, zymosan-stimulated PBL): 6%; inhibition at 50 µM ([4]; 50 μM, LPS-stimulated PBL): 17%; inhibition at 50 µM ([4]; 50 μM, PMA-stimulated PBL): 12%; inhibition at 50 µM ([4]; 50 μM, zymosan-stimulated PBL): 40%
